Measurements as given in US6538013B2, “Acyclic and cyclic guanidine-and acetamidine derivatives, their preparation and their use as pesticides, esp. as parasiticides” (Novartis Animal Health US, Inc., priority 1998, dated 2003).

Experiments:
Format in all cases: in vivo
[1] = system: cat fleas [Ctenocephalides felis (Bouche)]; experiment: Control of adult fleas in cats by means of pour-on application; settings: for action against adult fleas: pour-on on back of neck, 20 mg of active ingredient per kg body weight; for long-term action / long-term activity against adult fleas: evaluated up to day +63
Procedure: Test protocol for each test compound: in order to determine the effectiveness of the test compounds against fully grown fleas, four groups each of two cats are used. Each cat is infested with 100 cat fleas [Ctenocephalides felis (Bouche)] and treated with 20 mg of active ingredient per kg body weight. The treatment is effected by applying the formulation to a locally limited area on the back of the cat's neck. While one group is infested with fleas but is treated only with a placebo, that is to say a formulation without active ingredient, and serves as control, another group is treated with nitenpyram as comparison substance; the two remaining groups receive the test compounds. Evaluation is made in each case by combing surviving fleas out of the animal's coat and comparing the number counted with the number of fleas in the control group and in the group treated with nitenpyram. The procedure in detail is as follows: each cat is infested with 100 fleas immediately after treatment on day 0. On day +1, each animal is combed and the number of surviving fleas is determined; the surviving fleas are then replaced on the same cat and after 24 hours the combing and evaluation are repeated. The fleas still surviving after those 24 hours are not returned to the cat. The described procedure is then repeated on days +3, +7, +9, +14, +21, +28, +35, +42, +49, +56 and +63 and in this way the effectiveness and duration of action are determined. The effectiveness is determined in accordance with the following formula: [formula]

[2] = system: cat fleas [Ctenocephalides felis (Bouche)]; experiment: Control of adult fleas in cats by means of subcutaneous injection; settings: for action against adult fleas: subcutaneous injection behind left shoulder blade
Procedure: Test protocol for each test compound: in order to determine the effectiveness of the test compounds against fully grown fleas, four groups each of two cats from 1.5 to 4 years of age are used. Each cat is infested with 100 cat fleas [Ctenocephalides felis (Bouche)]. Two groups are treated with 20 mg of active ingredient per kg body weight. The treatment is effected by subcutaneous injection of a solution of the active ingredient behind the left shoulder blade. While one group is infested with fleas but is treated only with a placebo, that is to say a formulation without active ingredient, and serves as control, another group is treated with nitenpyram as comparison substance. Evaluation is made in each case by combing surviving fleas out of the animal's coat and comparing the number counted with the number of fleas in the control group and in the group treated with nitenpyram. The procedure in detail is as follows: each cat is infested with 100 fleas immediately after treatment on day 0. On day +1, each animal is combed and the number of surviving fleas is determined; the surviving fleas are then replaced on the same cat and after 24 hours the combing and evaluation are repeated. The fleas still surviving after those 24 hours are not returned to the cat. The described procedure is then repeated on days +3, +7, +9, +14, +21 and +28 and in this way the effectiveness and duration of action is determined. The effectiveness is determined using the same formula as in the preceding Example.

[3] = system: dog fleas [Ctenocephalides canis]; experiment: Control of adult fleas in dogs by means of pour-on application
Text: In dogs the test proceeds in an entirely analogous manner. In order to investigate the total action and any side-effects after administration in the form of a pour-on formulation, compound No. 1.008 is selected and tested on 11 dogs. The test protocol and the results are given in Example 7.
Test protocol for each test compound: in order to determine the effectiveness of the test compounds against fully grown fleas, three groups each of three dogs (1 male and 2 female beagles) are used; one group consists of two dogs (2 male beagles) and serves as control group. The entire test group consists of 11 beagles between 1 and 3.5 years of age. Each dog is infested with a total of 100 dog fleas [Ctenocephalides canis], 50 male and 50 female. Group 1 is treated with 2 mg, group 2 with 10 mg and group 3 with 20 mg of active ingredient per kg body weight. The treatment is effected by applying the pour-on formulation to a locally limited area on the back of the dog's neck. The fourth group is the control group. The latter is infested with fleas but is treated only with a placebo, that is to say a formulation without active ingredient, and serves for control purposes. Evaluation is made in each case by combing surviving fleas out of the animal's coat and comparing the number counted with the number of fleas in the control group. The procedure in detail is as follows: after treatment with the test formulation (day 0) each dog is infested on each of the subsequent days +1, +7, +14, +23, +28, +35, +49, +56, +63, +70, +77, +84 and +98 with 100 fleas. On the following day, each animal is combed and the number of surviving fleas is determined. The surviving fleas are then replaced on the same dog and after 24 hours the combing and evaluation are repeated. The fleas still surviving after those further 24 hours (2nd day after infestation with 100 fleas) are not returned to the dog. Then on days +3, +7, +9, +14, +21, +28, +35, +42 etc. the described procedure is repeated and in this way the effectiveness and the duration of action are determined. The effectiveness is determined using the formula given in Example 6.

Row | SMILES | action against adult fleas [1] | action against adult fleas ([2]; cats, 20 mg/kg body weight) | further results
1 | CCN(Cc1ccc(Cl)nc1)C(=C[N+](=O)[O-])N(C)C(=O)OCOC(C)=O [Compound 1.001] | Very good action | Very good action | –
2 | CCCCC(=O)OCOC(=O)N(C)C(=C[N+](=O)[O-])N(CC)Cc1ccc(Cl)nc1 [Compound 1.008] | Very good action | Very good action | action (effectiveness) to which it gradually declines after 7 weeks ([1]; pour-on, 20 mg/kg body weight): 26%; long-term action / long-term activity against adult fleas ([1]; pour-on, 20 mg/kg body weight): especially high level of long-term activity; action (effectiveness) against fleas ([3]; dogs (beagles), pour-on, groups 2, 10 and 20 mg/kg (group not stated), 79 days after application): 100%; effectiveness against fleas ([3]; dogs (beagles), pour-on, groups 2, 10 and 20 mg/kg (group not stated), day 86): 98.6%; effectiveness against fleas ([3]; dogs (beagles), pour-on, groups 2, 10 and 20 mg/kg (group not stated), day 98): 92.3%; skin irritation or other undesirable side-effects ([3]; dogs of the three test groups, pour-on 2, 10 and 20 mg/kg body weight): no skin irritation or any other undesirable side-effects
3 | CCCCCCCC(=O)OCOC(=O)N(C)C(=C[N+](=O)[O-])N(CC)Cc1ccc(Cl)nc1 [Compound 1.011] | Very good action | Very good action | action (effectiveness) to which it gradually declines after 7 weeks ([1]; pour-on, 20 mg/kg body weight): 26%; long-term action / long-term activity against adult fleas ([1]; pour-on, 20 mg/kg body weight): especially high level of long-term activity
4 | CCCCCCCCCCCC(=O)OCOC(=O)N(C)C(=C[N+](=O)[O-])N(CC)Cc1ccc(Cl)nc1 [Compound 1.012] | Very good action | Very good action | action (effectiveness) to which it gradually declines after 7 weeks ([1]; pour-on, 20 mg/kg body weight): 26%; long-term action / long-term activity against adult fleas ([1]; pour-on, 20 mg/kg body weight): especially high level of long-term activity; period of full action ([2]; cats, subcutaneous injection, 20 mg/kg body weight): at least 20 days; long-term action / long-term activity against adult fleas ([2]; cats, subcutaneous injection, 20 mg/kg body weight, evaluated up to day +28): especially high level of long-term activity
5 | CCCCCCCCCCCCCC(=O)OCOC(=O)N(C)C(=C[N+](=O)[O-])N(CC)Cc1ccc(Cl)nc1 [Compound 1.013] | Very good action | Very good action | –
6 | CCCCCCCCCCCCCCCC(=O)OCOC(=O)N(C)C(=C[N+](=O)[O-])N(CC)Cc1ccc(Cl)nc1 [Compound 1.014] | Very good action | Very good action | –
7 | CCCCCCCCCCCCCCCCCC(=O)OCOC(=O)N(C)C(=C[N+](=O)[O-])N(CC)Cc1ccc(Cl)nc1 [Compound 1.015] | Very good action | Very good action | –
8 | CCN(Cc1ccc(Cl)nc1)C(=C[N+](=O)[O-])N(C)C(=O)OCOC(=O)c1ccccc1 [Compound 1.018] | Very good action | Very good action | –
9 | CCCCCC(=O)OCOC(=O)N(C)C(=C[N+](=O)[O-])N(CC)Cc1ccc(Cl)nc1 [Compound 1.019] | – | – | long-term action in a further, fully analogous test ([1]; pour-on): long-term action equally as excellent
10 | CCN(Cc1ccc(Cl)nc1)C(=C[N+](=O)[O-])N(C)C(=O)OCOC(=O)c1ccc(C(C)(C)C)cc1 [Compound 1.022] | Very good action | Very good action | –
11 | CCN(Cc1ccc(Cl)nc1)C(=C[N+](=O)[O-])N(C)C(=O)OCOC(=O)C(C)(C)CC [Compound 1.056] | – | – | long-term action in a further, fully analogous test ([1]; pour-on): long-term action equally as excellent
12 | CCCCCCC(=O)OCOC(=O)N(C)C(=C[N+](=O)[O-])N(CC)Cc1ccc(Cl)nc1 [Compound 1.057] | – | – | long-term action in a further, fully analogous test ([1]; pour-on): long-term action equally as excellent
13 | CCCCCCCCCCC(=O)OCOC(=O)N(C)C(=C[N+](=O)[O-])N(CC)Cc1ccc(Cl)nc1 [Compound 1.058] | – | – | long-term action in a further, fully analogous test ([1]; pour-on): long-term action equally as excellent
14 | CCN(Cc1ccc(Cl)nc1)/C(=C\[N+](=O)[O-])NC [nitenpyram, (E)-N-(6-chloro-3-pyridylmethyl)-N-ethyl-N-methyl-2-nitrovinylidenediamine, reference compound] | – | – | period of full action (100% effectiveness) ([1]; pour-on, 20 mg/kg body weight): ≤ 3 weeks; period of full action ([2]; sc, 20 mg/kg): 2 days
